# Source: US20220340597A1, “HEXAHYDRO-1H-PYRAZINO[1,2-A]PYRAZINE COMPOUNDS FOR THE TREATMENT OF AUTOIMMUNE DISEASE” (Hoffmann-La Roche Inc., priority 2019, published 2022)
# Target: T1, human TLR9 (Homo sapiens, UniProt Q9NR96)
# T1 construct: host or cells: HEK293 (HEK-Blue hTLR9)
# T1 sequence (Q9NR96 26-1032): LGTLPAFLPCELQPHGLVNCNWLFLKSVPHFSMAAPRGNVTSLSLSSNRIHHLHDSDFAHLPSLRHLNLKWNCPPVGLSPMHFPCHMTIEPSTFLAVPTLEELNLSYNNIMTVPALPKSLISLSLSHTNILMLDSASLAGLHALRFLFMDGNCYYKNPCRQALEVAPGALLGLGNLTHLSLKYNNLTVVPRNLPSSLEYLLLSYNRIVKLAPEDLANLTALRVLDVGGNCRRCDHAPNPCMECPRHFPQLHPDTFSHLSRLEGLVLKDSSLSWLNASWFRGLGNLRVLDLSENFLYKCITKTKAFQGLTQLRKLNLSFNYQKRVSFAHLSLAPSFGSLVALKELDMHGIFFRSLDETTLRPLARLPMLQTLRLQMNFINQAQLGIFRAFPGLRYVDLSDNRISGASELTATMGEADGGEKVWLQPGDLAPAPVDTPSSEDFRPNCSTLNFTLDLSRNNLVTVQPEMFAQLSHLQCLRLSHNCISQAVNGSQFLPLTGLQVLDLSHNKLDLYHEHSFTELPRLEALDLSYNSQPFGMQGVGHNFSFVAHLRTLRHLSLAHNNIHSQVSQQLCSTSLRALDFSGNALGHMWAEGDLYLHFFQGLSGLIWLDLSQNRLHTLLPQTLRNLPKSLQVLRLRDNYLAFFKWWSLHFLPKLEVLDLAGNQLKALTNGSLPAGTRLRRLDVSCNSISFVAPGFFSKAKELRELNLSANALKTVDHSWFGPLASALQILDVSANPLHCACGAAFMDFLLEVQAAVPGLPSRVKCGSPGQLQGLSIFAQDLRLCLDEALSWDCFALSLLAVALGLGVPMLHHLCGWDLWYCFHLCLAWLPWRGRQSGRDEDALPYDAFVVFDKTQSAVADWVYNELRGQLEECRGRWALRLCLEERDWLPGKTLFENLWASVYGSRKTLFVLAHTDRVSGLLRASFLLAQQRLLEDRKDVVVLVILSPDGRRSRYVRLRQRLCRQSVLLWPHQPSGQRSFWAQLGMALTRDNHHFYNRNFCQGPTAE
# Experiment: HEK293-Blue-hTLR-9 cells assay
# Type: cell-based
# Conditions: HEK293-Blue-hTLR9 cells, ODN2006 stimulation, 20 hrs, SEAP reporter; read-out: HEK/hTLR9 IC50
# Description: The following tests were carried out in order to determine the activity of the compounds of formula (I) and (Ia) in HEK293-Blue-hTLR-7/8/9 cells assay.
# HEK293-Blue-hTLR-9 Cells Assay:
# A stable HEK293-Blue-hTLR-9 cell line was purchased from InvivoGen (Cat. #: hkb-htlr9, San Diego, Calif., USA). These cells were originally designed for studying the stimulation of human TLR9 by monitoring the activation of NF-κB. A SEAP (secreted embryonic alkaline phosphatase) reporter gene was placed under the control of the […] minimal promoter fused to five NF-κB and AP-1-binding sites. The SEAP was induced by activating NF-κB and AP-1 via stimulating HEK-Blue hTLR9 cells with TLR9 ligands. Therefore, the reporter expression was declined by TLR9 antagonist under the stimulation of a ligand, such as ODN2006 (Cat. #: tlr1-2006-1, Invivogen, San Diego, Calif., USA), for incubation of 20 hrs. The cell culture supernatant SEAP reporter activity was determined using QUANTI-Blue™ kit (Cat. #: rep-qb1, Invivogen, San Diego, Calif., USA) at a wavelength of 640 nm, a detection medium that turns purple or blue in the presence of alkaline phosphatase.
# Then 20 μL of the supernatant from each well was incubated with 180 μL Quanti-blue substrate solution at 37° C. for 2 h and the absorbance was read at 620-655 nm using a spectrophotometer. The signaling pathway that TLR9 activation leads to downstream NF-κB activation has been widely accepted, and therefore similar reporter assay was modified for evaluating TLR9 antagonist.
row,Structure (SMILES),IC50 [nM]
1,"CO[C@@H]1CN(c2nc(C)cc(N3CCN4[C@@H](C3)CN(c3ccc(C#N)c5ncccc35)C[C@H]4C)n2)C[C@H]1N [Example 45, 5-[(4R,9aR)-8-[2-[(3R,4R)-3-amino-4-methoxy-pyrrolidin-1-yl]-6-methyl-pyrimidin-4-yl]-4-methyl-3,4,6,7,9,9a-hexahydro-1H-pyrazino[1,2-a]pyrazin-2-yl]quinoline-8-carbonitrile]",81
2,"C[C@@H]1CN(c2ccc(C#N)c3ncccc23)C[C@@H]2CN(CCc3ccc(N4CC5(CNCCO5)C4)cc3)CCN21 [Example 28, 5-[(4R,9aS)-4-methyl-8-[2-[4-(5-oxa-2,8-diazaspiro[3.5]nonan-2-yl)phenyl]ethyl]-3,4,6,7,9,9a-hexahydro-1H-pyrazino[1,2-a]pyrazin-2-yl]quinoline-8-carbonitrile]",98
3,"[2H]c1ccc2c(N3C[C@@H]4CN(Cc5ccc6c(c5)CNCC6)CCN4[C@H](C)C3)ccc(C#N)c2n1 [Example 61, 5-[(4R,9aS)-4-methyl-8-(1,2,3,4-tetrahydroisoquinolin-7-ylmethyl)-3,4,6,7,9,9a-hexahydro-1H-pyrazino[1,2-a]pyrazin-2-yl]-2-deuterio-quinoline-8-carbonitrile]",64
4,"C[C@@H]1CN(c2ccc(C#N)c3ncccc23)C[C@@H]2CN(c3nccc4c3CCNC4)CCN21 [Example 16, 5-[(4R,9aR)-4-methyl-8-(5,6,7,8-tetrahydro-2,6-naphthyridin-1-yl)-3,4,6,7,9,9a-hexahydro-1H-pyrazino[1,2-a]pyrazin-2-yl]quinoline-8-carbonitrile]",120
5,"C[C@@H]1CN(c2ccc(C#N)c3ncccc23)C[C@@H]2CN(Cc3ccc4c(c3)CCNC4)CCN21 [Example 10, 5-[(4R,9aS)-4-methyl-8-(1,2,3,4-tetrahydroisoquinolin-6-ylmethyl)-3,4,6,7,9,9a-hexahydro-1H-pyrazino[1,2-a]pyrazin-2-yl]quinoline-8-carbonitrile]",43
6,"CO[C@@H]1CN(c2ccc(CCN3CCN4[C@@H](C3)CN(c3ccc(C#N)c5ncccc35)C[C@H]4C)cc2)C[C@H]1N [Example 26, 5-[(4R,9aS)-8-[2-[4-[(3R,4R)-3-amino-4-methoxy-pyrrolidin-1-yl]phenyl]ethyl]-4-methyl-3,4,6,7,9,9a-hexahydro-1H-pyrazino[1,2-a]pyrazin-2-yl]quinoline-8-carbonitrile]",87
7,"[2H]c1ccc2c(N3C[C@@H]4CN(c5ccc(N6C[C@@H](N)[C@H](OC)C6)nc5)CCN4[C@@H](C)C3)ccc(C#N)c2n1 [Example 115, 5-[(4S,9aR)-8-[6-[(3R,4R)-3-amino-4-methoxy-pyrrolidin-1-yl]-3-pyridyl]-4-methyl-3,4,6,7,9,9a-hexahydro-1H-pyrazino[1,2-a]pyrazin-2-yl]-2-deuterio-quinoline-8-carbonitrile]",140
8,"C[C@@H]1CN(c2ccc(C#N)c3ncccc23)C[C@@H]2CN(CCc3ccc(N4CC5(CNCCO5)C4)nc3)CCN21 [Example 59, 5-[(4R,9aS)-4-methyl-8-[2-[6-(5-oxa-2,8-diazaspiro[3.5]nonan-2-yl)-3-pyridyl]ethyl]-3,4,6,7,9,9a-hexahydro-1H-pyrazino[1,2-a]pyrazin-2-yl]quinoline-8-carbonitrile]",48
9,"N#Cc1ccc(N2CCN3CCN(c4cccc5c4CNC5)CC3C2)c2cccnc12 (stereo not drawn) [Example 35, 5-(8-isoindolin-4-yl-3,4,6,7,9,9a-hexahydro-1H-pyrazino[1,2-a]pyrazin-2-yl)quinoline-8-carbonitrile]",98
10,"[2H]c1ccc2c(N3C[C@@H]4CN(c5ncc(N6C[C@H]7NCCO[C@@H]7C6)cc5C)CCN4[C@@H](C)C3)ccc(C#N)c2n1 [Example 114, 5-[(4S,9aR)-8-[5-[(4aR,7aR)-3,4,4a,5,7,7a-hexahydro-2H-pyrrolo[3,4-b][1,4]oxazin-6-yl]-3-methyl-2-pyridyl]-4-methyl-3,4,6,7,9,9a-hexahydro-1H-pyrazino[1,2-a]pyrazin-2-yl]-2-deuterio-quinoline-8-carbonitrile]",110
11,"CO[C@@H]1CN(c2ccc(CCN3CCN4[C@@H](C3)CN(c3ccc(C#N)c5ncccc35)C[C@H]4C)nc2)C[C@H]1N [Example 13, 5-[(4R,9aS)-8-[2-[5-[(3R,4R)-3-amino-4-methoxy-pyrrolidin-1-yl]-2-pyridyl]ethyl]-4-methyl-3,4,6,7,9,9a-hexahydro-1H-pyrazino[1,2-a]pyrazin-2-yl]quinoline-8-carbonitrile]",40
12,"[2H]c1ccc2c(N3C[C@@H]4CN(c5ncc(N6C[C@@H]7C[C@H]6CN7)cc5C)CCN4[C@@H](C)C3)ccc(C#N)c2n1 [Example 111, 5-[(4S,9aR)-8-[5-[(1S,4S)-2,5-diazabicyclo[2.2.1]heptan-2-yl]-3-methyl-2-pyridyl]-4-methyl-3,4,6,7,9,9a-hexahydro-1H-pyrazino[1,2-a]pyrazin-2-yl]-2-deuterio-quinoline-8-carbonitrile]",119
13,"C[C@@H]1CN(c2ccc(C#N)c3ncccc23)C[C@@H]2CN(CCc3ccc(N4CC(C)(N)C4)nc3)CCN21 [Example 65, 5-[(4R,9aS)-8-[2-[6-(3-amino-3-methyl-azetidin-1-yl)-3-pyridyl]ethyl]-4-methyl-3,4,6,7,9,9a-hexahydro-1H-pyrazino[1,2-a]pyrazin-2-yl]quinoline-8-carbonitrile]",50
14,"CO[C@@H]1CN(c2nccc(N3CCN4[C@@H](C3)CN(c3ccc(C#N)c5ncccc35)C[C@H]4C)n2)C[C@H]1N [Example 36, 5-[(4R,9aR)-8-[2-[(3R,4R)-3-amino-4-methoxy-pyrrolidin-1-yl]pyrimidin-4-yl]-4-methyl-3,4,6,7,9,9a-hexahydro-1H-pyrazino[1,2-a]pyrazin-2-yl]quinoline-8-carbonitrile]",68
15,"[2H]c1ccc2c(N3C[C@@H]4CN(Cc5ccc(N6CC(C)(N)C6)nc5C)CCN4[C@H](C)C3)ccc(C#N)c2n1 [Example 79, 5-[(4R,9aS)-8-[[6-(3-amino-3-methyl-azetidin-1-yl)-2-methyl-3-pyridyl]methyl]-4-methyl-3,4,6,7,9,9a-hexahydro-1H-pyrazino[1,2-a]pyrazin-2-yl]-2-deuterio-quinoline-8-carbonitrile]",46
16,"C[C@H]1CN(c2ccc(C#N)c3ncccc23)C[C@@H]2CN(c3ccc([C@@H]4CNCCO4)cc3)CCN21 [Example 125, 5-[(4S,9aS)-4-methyl-8-[4-[(2R)-morpholin-2-yl]phenyl]-3,4,6,7,9,9a-hexahydro-1H-pyrazino[1,2-a]pyrazin-2-yl]quinoline-8-carbonitrile]",120
17,"C[C@@H]1CN(c2ccc(C#N)n3ncc(F)c23)C[C@@H]2CN(CCc3ccc(N4CC(C)(N)C4)nc3)CCN21 [Example 74, 4-[(4R,9aS)-8-[2-[6-(3-amino-3-methyl-azetidin-1-yl)-3-pyridyl]ethyl]-4-methyl-3,4,6,7,9,9a-hexahydro-1H-pyrazino[1,2-a]pyrazin-2-yl]-3-fluoro-pyrazolo[1,5-a]pyridine-7-carbonitrile]",48
18,"[2H]c1ccc2c(N3C[C@@H]4CN(CCc5ccc(N6C[C@@H](N)[C@H](OC)C6)nc5)CCN4[C@H](C)C3)ccc(C#N)c2n1 [Example 62, 5-[(4R,9aS)-8-[2-[6-[(3R,4R)-3-amino-4-methoxy-pyrrolidin-1-yl]-3-pyridyl]ethyl]-4-methyl-3,4,6,7,9,9a-hexahydro-1H-pyrazino[1,2-a]pyrazin-2-yl]-2-deuterio-quinoline-8-carbonitrile]",43
